Source: patent publication US20120244567A1, “HUMAN EMBRYONIC STEM CELLS FOR HIGH THROUGHOUT DRUG SCREENING” (BUCK INSTITUTE FOR RESEARCH ON AGING, priority 2009, published 2012)
Structures can show the parent of a compound that is named as a salt. Where two headings read alike, the source gives them in different places.

Test system: NSCs
Protocol: RNAs isolated from NSCs and neurons with and without drug treatments were hybridized to Illumina HumanRef-8 BeadChip (Illumina, Inc., San Diego, Calif., performed by Microarray core facility at the Burnham Institute for Medical Research). The Illumina array data were normalized by the quantile method, and then transformed log 2 ratio values for a zero mean for expression values of each gene across all samples. The statistical and bioinformatics analyses were conducted by using R and the bioconductor package (www.bioconductor.org). The gene set enrichment analysis was conducted using the GSEA software (www.broad.mit.edu/gsea).

[1] = Amiloride sensitive Na channels, 4 hours of exposure
[2] = Amine transporters, 4 hours of exposure
[3] = Ca activated K channels, 4 hours of exposure
[4] = Calcium channels, 4 hours of exposure
[5] = Cl channels, 4 hours of exposure
[6] = Delayed rectifier K channels, 4 hours of exposure
[7] = H ion transporters, 4 hours of exposure
[8] = Rectifier K channels, 4 hours of exposure
[9] = Voltage gated Na channels, 4 hours of exposure

CCCCc1oc2ccccc2c1C(=O)c1cc(I)c(OCCN(CC)CC)c(I)c1 [Amiodarone Hydrochloride]
ERG expression, Treated NSC: 32.9 | ACCN1 gene expression, Treated NSC [1]: 16.5 | ACCN2 gene expression, Treated NSC [1]: 185.7 | ACCN3 gene expression, Treated NSC [1]: 11 | SLC1A2 gene expression, Treated NSC [2]: 15.7 | SLC1A3 gene expression, Treated NSC [2]: 552.1 | SLC6A3 gene expression, Treated NSC [2]: 21.2 | SLC6A9 gene expression, Treated NSC [2]: 329.2 | SLC6A12 gene expression, Treated NSC [2]: 9.6 | KCNMB1 gene expression, Treated NSC [3]: 62.9 | KCNN1 gene expression, Treated NSC [3]: 6.5 | KCNN2 gene expression, Treated NSC [3]: 15.8 | KCNN3 gene expression, Treated NSC [3]: 0.7 | CACNA1A gene expression, Treated NSC [4]: 2 | CACNA1C gene expression, Treated NSC [4]: 25.9 | CACNB2 gene expression, Treated NSC [4]: 7.8 | CACNG2 gene expression, Treated NSC [4]: 2.5 | CLCN2 gene expression, Treated NSC [5]: 41.6 | CLCN3 gene expression, Treated NSC [5]: 566.5 | CLCN6 gene expression, Treated NSC [5]: 349.8 | CLCN7 gene expression, Treated NSC [5]: 1305.5 | CLIC1 gene expression, Treated NSC [5]: 122.2 | KCNA5 gene expression, Treated NSC [6]: 24.2 | KCNB1 gene expression, Treated NSC [6]: 32.8 | KCNB2 gene expression, Treated NSC [6]: 25 | ATP5B gene expression, Treated NSC [7]: 7030.3 | ATP6V0A2 gene expression, Treated NSC [7]: 190.2 | ATP6V0D1 gene expression, Treated NSC [7]: 3355 | ATP6V1A gene expression, Treated NSC [7]: 1155.9 | ATP6V1B2 gene expression, Treated NSC [7]: 385.4 | SLC2A1 gene expression, Treated NSC [7]: 1274.8 | SLC2A11 gene expression, Treated NSC [7]: 22.8 | SLC35B1 gene expression, Treated NSC [7]: 1769.8 | expression of Fos, FosB and DDIT3 (NSCs, four hours after exposure): significantly up regulated | KCNC4 gene expression, Treated NSC [8]: 4.5 | KCND2 gene expression, Treated NSC [8]: 2.3 | KCNF1 gene expression, Treated NSC [8]: 189.2 | KCNG1 gene expression, Treated NSC [8]: 150.4 | KCNJ4 gene expression, Treated NSC [8]: 15.9 | KCNJ6 gene expression, Treated NSC [8]: 317.3 | KCNJ11 gene expression, Treated NSC [8]: 13.5 | KCNQ3 gene expression, Treated NSC [8]: 3.4 | KCNQ2 gene expression, Treated NSC (Rectifier K channels, first line for this gene, 4 hours of exposure): 138.1 | KCNQ2 gene expression, Treated NSC (Rectifier K channels, second line for this gene, 4 hours of exposure): 919.6 | SCN1A gene expression, Treated NSC [9]: 20.5 | SCN3A gene expression, Treated NSC [9]: 5.7 | SCN9A gene expression, Treated NSC [9]: 1.9 | expression of KLF 10 (intrinsic mitochondrial apoptotic pathway) (differentiated cells, treated versus untreated cells): not altered | AFF1 expression, Treated NSC (four hours after exposure): 50.8 | ARID3A expression, Treated NSC (four hours after exposure): 2200 | ASCL2 expression, Treated NSC (four hours after exposure): 36 | CREBL1 expression, Treated NSC (four hours after exposure): 32.2 | DDIT3 expression, Treated NSC (four hours after exposure): 2270 | DLX1 expression, Treated NSC (four hours after exposure): 1550 | DLX2 expression, Treated NSC (four hours after exposure): 54.3 | E2F2 expression, Treated NSC (four hours after exposure): 635 | E2F7 expression, Treated NSC (four hours after exposure): 711 | E2F8 expression, Treated NSC (four hours after exposure): 82.7 | EGR1 expression, Treated NSC (four hours after exposure): 3100 | EGR2 expression, Treated NSC (four hours after exposure): 155 | ELF4 expression, Treated NSC (four hours after exposure): 103 | ELF5 expression, Treated NSC (four hours after exposure): 30.8 | ELK3 expression, Treated NSC (four hours after exposure): 89.9 | ELK4 expression, Treated NSC (four hours after exposure): 39.3 | EN1 expression, Treated NSC (four hours after exposure): 48.7 | ETS1 expression, Treated NSC (four hours after exposure): 952 | ETV1 expression, Treated NSC (four hours after exposure): 34.4 | ETV4 expression, Treated NSC (four hours after exposure): 672 | FOS expression, Treated NSC (four hours after exposure): 1160 | FOSB expression, Treated NSC (four hours after exposure): 174 | FOXA2 expression, Treated NSC (four hours after exposure): 36.8 | FOXD1 expression, Treated NSC (four hours after exposure): 79.7 | FOXF2 expression, Treated NSC (four hours after exposure): 39.3 | FOXL2 expression, Treated NSC (four hours after exposure): 120 | FOXM1 expression, Treated NSC (four hours after exposure): 287 | GATA2 expression, Treated NSC (four hours after exposure): 46.2 | GLI2 expression, Treated NSC (four hours after exposure): 227 | HCLS1 expression, Treated NSC (four hours after exposure): 40 | HEY2 expression, Treated NSC (four hours after exposure): 37.9 | HIRA expression, Treated NSC (four hours after exposure): 31.5 | HMGB2 expression, Treated NSC (four hours after exposure): 2170 | HOXA2 expression, Treated NSC (four hours after exposure): 770 | HOXA13 expression, Treated NSC (four hours after exposure): 33.2 | HOXB1 expression, Treated NSC (four hours after exposure): 30.6 | HOXB2 expression, Treated NSC (four hours after exposure): 1100 | HOXB3 expression, Treated NSC (four hours after exposure): 186 | HOXB4 expression, Treated NSC (four hours after exposure): 198 | HOXB5 expression, Treated NSC (four hours after exposure): 49.9 | HOXD3 expression, Treated NSC (four hours after exposure): 70.2 | IRF1 expression, Treated NSC (four hours after exposure): 38.9 | KLF10 expression, Treated NSC (four hours after exposure): 38.1 | L3MBTL expression, Treated NSC (four hours after exposure): 27.5 | LHX8 expression, Treated NSC (four hours after exposure): 42.9 | MEF2C expression, Treated NSC (four hours after exposure): 33.1 | MEOX1 expression, Treated NSC (four hours after exposure): 178 | MSX2 expression, Treated NSC (four hours after exposure): 41.9 | MYEF2 expression, Treated NSC (four hours after exposure): 30.6 | NFATC3 expression, Treated NSC (four hours after exposure): 32.4 | NFATC4 expression, Treated NSC (four hours after exposure): 32.8 | NFKB2 expression, Treated NSC (four hours after exposure): 68 | NR1D2 expression, Treated NSC (four hours after exposure): 44.9 | NR2C2 expression, Treated NSC (four hours after exposure): 65.3 | NR4A2 expression, Treated NSC (four hours after exposure): 30.4 | NRK expression, Treated NSC (four hours after exposure): 43.8 | PAX8 expression, Treated NSC (four hours after exposure): 98.9 | PBX2 expression, Treated NSC (four hours after exposure): 70.8 | PRDM1 expression, Treated NSC (four hours after exposure): 94.7 | PRRX2 expression, Treated NSC (four hours after exposure): 67.5 | RELB expression, Treated NSC (four hours after exposure): 53.6 | RUNX1 expression, Treated NSC (four hours after exposure): 43.3 | SALL1 expression, Treated NSC (four hours after exposure): 80.9 | SIX4 expression, Treated NSC (four hours after exposure): 185 | STAT6 expression, Treated NSC (four hours after exposure): 55.8 | TAF5L expression, Treated NSC (four hours after exposure): 77.4 | TAF13 expression, Treated NSC (four hours after exposure): 35.2 | TBX2 expression, Treated NSC (four hours after exposure): 46.9 | TEAD3 expression, Treated NSC (four hours after exposure): 87 | TEAD4 expression, Treated NSC (four hours after exposure): 235 | TEF expression, Treated NSC (four hours after exposure): 32.4 | TGIF1 expression, Treated NSC (four hours after exposure): 117 | TP53 expression, Treated NSC (four hours after exposure): 267 | ZNF85 expression, Treated NSC (four hours after exposure): 93.8 | ZNF197 expression, Treated NSC (four hours after exposure): 32.8 | ZNF274 expression, Treated NSC (four hours after exposure): 37.8 | ZNF367 expression, Treated NSC (four hours after exposure): 30.9 | ZSCAN29 expression, Treated NSC (four hours after exposure): 47.6
